Read-outs that look alike come from different tables or passages of the source.
Legend:
[1] = Stability against liver microsomes; format: in vitro ADME, human; details: 2 μM, 37° C.; for half-life: human, microsomes, read-out: half-life (t1/2) with liver microsomes
Experimental: (§1) Reactions were terminated by the addition of TFA/H2O (15 mL, 10% (v/v)). […] The column was equilibrated with TFA/H2O, at a flow rate of 1 mL/min. […] The absorbance was monitored at 206 nm using UV detector and peaks were collected manually prior to ESI-MS analysis.

DPP IV = DPP IV (Homo sapiens, UniProt P27487); assay: Stability against DPP IV enzyme; format: in vitro ADME; details: 2 μM, 37° C.; for half-life: read-out: half-life (t1/2) with DPP-IV enzyme
DPP IV, sequence (P27487 whole entry, species assumed): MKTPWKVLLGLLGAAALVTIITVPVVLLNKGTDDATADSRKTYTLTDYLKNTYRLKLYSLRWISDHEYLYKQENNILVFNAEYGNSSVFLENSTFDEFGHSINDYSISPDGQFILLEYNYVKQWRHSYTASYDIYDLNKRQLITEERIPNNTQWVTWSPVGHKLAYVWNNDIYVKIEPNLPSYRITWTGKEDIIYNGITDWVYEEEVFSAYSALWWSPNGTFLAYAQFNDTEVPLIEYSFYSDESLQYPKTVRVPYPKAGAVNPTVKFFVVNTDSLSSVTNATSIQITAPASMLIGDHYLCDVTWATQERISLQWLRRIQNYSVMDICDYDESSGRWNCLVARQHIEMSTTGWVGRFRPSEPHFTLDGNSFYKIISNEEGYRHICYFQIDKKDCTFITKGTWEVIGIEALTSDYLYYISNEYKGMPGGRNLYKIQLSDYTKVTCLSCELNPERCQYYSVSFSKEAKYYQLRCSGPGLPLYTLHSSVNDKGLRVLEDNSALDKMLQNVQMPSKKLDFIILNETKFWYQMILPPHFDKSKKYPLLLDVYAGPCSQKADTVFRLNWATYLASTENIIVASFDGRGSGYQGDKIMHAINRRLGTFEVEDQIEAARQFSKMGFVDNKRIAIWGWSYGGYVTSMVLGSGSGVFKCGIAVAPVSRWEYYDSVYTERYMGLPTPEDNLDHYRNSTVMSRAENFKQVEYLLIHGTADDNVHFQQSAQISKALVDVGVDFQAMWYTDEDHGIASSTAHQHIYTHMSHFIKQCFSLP
Experimental: as §1

[2] = Stability in simulated intestinal fluid; format: in vitro ADME; details: 2 μM, 37° C., pH 7.5; for half-life: simulated gi fluid, read-out: half-life (t1/2) in simulated intestinal fluid
Experimental: as §1

[3] = Stability in simulated gastric fluid; format: in vitro ADME; details: 2 μM, 37° C., pH 1.5, pepsin; for half-life: simulated gi fluid, read-out: half-life (t1/2) in simulated gastric fluid
Experimental: as §1

Human GLP-1 receptor = target: T1, Human GLP-1 receptor (Homo sapiens, UniProt P43220); format: cell-based
T1 construct: The full-length cDNA was cloned in pcDNA3.1(+); expressed in transfected cells
T1 sequence (P43220 24-463): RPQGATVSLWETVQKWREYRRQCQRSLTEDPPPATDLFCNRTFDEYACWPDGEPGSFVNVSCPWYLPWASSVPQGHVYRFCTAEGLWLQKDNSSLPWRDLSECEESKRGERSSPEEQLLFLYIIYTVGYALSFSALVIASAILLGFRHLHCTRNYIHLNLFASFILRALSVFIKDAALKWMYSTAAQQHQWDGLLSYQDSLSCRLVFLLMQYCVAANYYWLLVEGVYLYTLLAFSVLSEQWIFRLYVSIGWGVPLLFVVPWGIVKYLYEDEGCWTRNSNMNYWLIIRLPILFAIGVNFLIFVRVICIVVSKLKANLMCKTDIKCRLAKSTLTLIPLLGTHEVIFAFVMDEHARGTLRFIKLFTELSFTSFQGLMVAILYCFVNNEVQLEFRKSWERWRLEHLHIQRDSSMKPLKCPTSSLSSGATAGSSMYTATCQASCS
Procedure, shortened: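 Stably transfected CHO cells expressing human GLP-1R, passages 9-25, exposed to compounds for 30 min at 37 °C. Lysed in ice-cold 0.1 N HCl; total cAMP by immunoassay, protein by micro BCA; expressed as percent of water vehicle control, mean±SD.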

[4] = Stability in human plasma; format: in vitro ADME; details: 2 μM, 37° C.; for half-life: human, plasma, read-out: half-life (t1/2) in human plasma
Experimental: as §1

| % degradation in 24 h when incubated with liver microsomes [1] | half-life [1] | % degradation in 24 h when incubated with DPP-IV enzyme (DPP IV) | half-life (DPP IV) | % degradation in 24 h when incubated with simulated intestinal fluid [2] | half-life [2] | % degradation in 24 h when incubated with simulated gastric fluid [3] | half-life [3] | Human GLP-1 R activity (cAMP release), % activity with respect to control (Human GLP-1 receptor; 1 nM test compound) | Human GLP-1 R activity (cAMP release), % activity with respect to control (Human GLP-1 receptor; 10 nM test compound) | Human GLP-1 R activity (cAMP release), % activity with respect to control (Human GLP-1 receptor; 100 nM test compound) | Human GLP-1 R activity (cAMP release), % activity with respect to control (Human GLP-1 receptor; 1 μM test compound) | Human GLP-1 R activity (cAMP release), % activity with respect to control (Human GLP-1 receptor; 10 μM test compound) | % degradation in 24 h when incubated with human plasma [4] | half-life [4] | half-life (t1/2) with liver microsomes [1] | SMILES |
| --- | --- | --- | --- | --- | --- | --- | --- | --- | --- | --- | --- | --- | --- | --- | --- | --- |
| 80% | 2 h | 00% | > 24 h | 00% | > 24 h | 41% | 4 h | 96 ± 0.09% | 99 ± 0.07% | 99 ± 0.04% | 99 ± 0.01% | 99 ± 0.08% | 00% | > 24 h | – | CCc1cc(OC)ccc1-c1ccc(CC(NC(=O)[C@H](CC(=O)O)NC(=O)[C@H](CO)NC(=O)[C@@H](NC(=O)[C@H](Cc2ccccc2)NC(=O)[C@@H](NC(=O)CNC(=O)[C@H](CCC(N)=O)NC(=O)C2(NC(=O)[C@@H](N)Cc3c[nH]cn3)CC2)[C@@H](C)O)[C@@H](C)O)C(=O)NC(Cc2ccc(-c3ccccc3C(F)(F)F)cc2)C(N)=O)cc1 (single isomer, unassigned) [compound 20] |
| 86% | 2 h | 00% | > 24 h | 00% | > 24 h | 50% | 4 h | 60 ± 0.12% | 92 ± 0.15% | 98 ± 0.18% | 99 ± 0.03% | 99 ± 0.09% | 00% | > 24 h | – | CCc1cc(OC)ccc1-c1ccc(CC(NC(=O)[C@H](CC(=O)O)NC(=O)[C@H](CO)NC(=O)[C@@H](NC(=O)[C@H](Cc2ccccc2)NC(=O)[C@@H](NC(=O)CNC(=O)[C@H](CCC(N)=O)NC(=O)C(C)(C)NC(=O)[C@@H](N)Cc2c[nH]cn2)[C@@H](C)O)[C@@H](C)O)C(=O)NC(Cc2ccc(-c3ccccc3C)cc2)C(N)=O)cc1 (single isomer, unassigned) [compound 13] |
| 84% | 2 h | 00% | > 24 h | 00% | > 24 h | 55% | 4 h | 62 ± 0.11% | 94 ± 0.09% | 99 ± 0.06% | 99 ± 0.14% | 99 ± 0.19% | 00% | > 24 h | – | CCc1cc(OC)ccc1-c1ccc(CC(NC(=O)[C@H](CC(=O)O)NC(=O)[C@H](CO)NC(=O)[C@@H](NC(=O)[C@H](Cc2ccccc2)NC(=O)[C@@H](NC(=O)CNC(=O)[C@H](CCC(N)=O)NC(=O)C(C)(C)NC(=O)[C@@H](N)Cc2c[nH]cn2)[C@@H](C)O)[C@@H](C)O)C(=O)NC(Cc2ccc(-c3ccccc3C)nc2)C(N)=O)cc1 (single isomer, unassigned) [compound 14] |
| 35% | – | 00% | > 24 h | 00% | > 24 h | 00% | > 24 h | 96 ± 0.09% | 99 ± 0.07% | 99 ± 0.04% | 99 ± 0.01% | 99 ± 0.08% | 00% | > 24 h | (5) h | CCc1cc(OC)ccc1-c1ccc(CC(NC(=O)[C@H](CC(=O)O)NC(=O)[C@H](CO)NC(=O)[C@@H](NC(=O)C(C)(Cc2ccccc2F)NC(=O)[C@@H](NC(=O)CNC(=O)[C@H](CCC(N)=O)NC(=O)C2(NC(=O)[C@@H](N)Cc3c[nH]cn3)CC2)[C@@H](C)O)[C@@H](C)O)C(=O)NC(Cc2ccc(-c3ccccc3C(F)(F)F)cc2)C(N)=O)cc1 (single isomer, unassigned) [compound 36] |
| 81% | 2 h | 00% | > 24 h | 00% | > 24 h | 52% | 4 h | 86 ± 0.11% | 99 ± 0.09% | 99 ± 0.06% | 99 ± 0.14% | 99 ± 0.19% | 00% | > 24 h | – | CCc1cc(OC)ccc1-c1ccc(CC(NC(=O)[C@H](CC(=O)O)NC(=O)[C@H](CO)NC(=O)[C@@H](NC(=O)[C@H](Cc2ccccc2)NC(=O)[C@@H](NC(=O)CNC(=O)[C@H](CCC(N)=O)NC(=O)C2(NC(=O)[C@@H](N)Cc3c[nH]cn3)CC2)[C@@H](C)O)[C@@H](C)O)C(=O)NC(Cc2ccc(-c3ccccc3C)nc2)C(N)=O)cc1 (single isomer, unassigned) [compound 18] |
| 26% | – | 00% | > 24 h | 00% | > 24 h | 00% | > 24 h | 99 ± 0.02% | 99 ± 0.26% | 99 ± 0.31% | 99 ± 0.60% | 99 ± 0.08% | 00% | > 24 h | (5) h | CCc1cc(OC)ccc1-c1ccc(CC(NC(=O)[C@H](CC(=O)O)NC(=O)[C@H](CO)NC(=O)[C@@H](NC(=O)C(C)(Cc2ccccc2F)NC(=O)[C@@H](NC(=O)CNC(=O)[C@H](CCC(N)=O)NC(=O)C2(NC(=O)[C@@H](N)Cc3c[nH]cn3)CC2)[C@@H](C)O)[C@@H](C)O)C(=O)NC(Cc2ccc(-c3ccccc3F)cc2)C(N)=O)cc1 (single isomer, unassigned) [compound 35] |
| 35% | – | 00% | > 24 h | 00% | > 24 h | 00% | > 24 h | 99 ± 0.12% | 99 ± 0.15% | 99 ± 0.18% | 99 ± 0.03% | 99 ± 0.09% | 00% | > 24 h | (5) h | CCc1cc(OC)ccc1-c1ccc(CC(NC(=O)[C@H](CC(=O)O)NC(=O)[C@H](CO)NC(=O)[C@@H](NC(=O)C(C)(Cc2ccccc2F)NC(=O)[C@@H](NC(=O)CNC(=O)[C@H](CCC(N)=O)NC(=O)C(C)(C)NC(=O)[C@@H](N)Cc2c[nH]cn2)[C@@H](C)O)[C@@H](C)O)C(=O)NC(Cc2ccc(-c3ccccc3C)cc2)C(N)=O)cc1 (single isomer, unassigned) [compound 29] |

From patent US8841413B2, “Antidiabetic compounds” (Cadila Healthcare Limited, priority 2006, dated 2014)
